The values below are quoted from earlier work in PMC6376154 (International Journal for Parasitology: Drugs and Drug …, 2019).

Like-named read-outs stand apart in the source and are kept apart here.

The subject of this data set is P. falciparum 3D7 asexual blood stage. The following applies: cited from earlier work.
Where [1] appears, read: MMV Malaria Box data sheet (supplement mmc2.xls), ref MMV data sheet.
The mark [2] stands for this setting: MMV Malaria Box data sheet (supplement mmc2.xls), ref MMV data sheet, read-out: EC50_nM.
[3] abbreviates: MMV Malaria Box sheet, ref MMV data sheets.
Where [4] appears, read: MMV Malaria Box sheet, ref MMV data sheets, read-out: EC50_nM.
The mark [5] stands for this setting: source StJude, ref ChEMBL_NTD, read-out: CHEMBL EC50.
Where [6] appears, read: ChEMBL-NTD value per source (GNF, GSK, StJude), several values in a cell follow the order of the sources, read-out: CHEMBL EC50.
Where [7] appears, read: MMV Malaria Box data sheet, ref MMV data sheets.
[8] abbreviates: MMV Malaria Box data sheet, ref MMV data sheets, read-out: EC50_nM.
Setting [9] is: source GNF, ref ChEMBL_NTD, read-out: CHEMBL EC50.
Where [10] appears, read: source GSK, ref ChEMBL_NTD, read-out: CHEMBL EC50.
The mark [11] stands for this setting: value(s) per source (GSK, GNF, StJude), separated by semicolon, ref ChEMBL-NTD, read-out: CHEMBL EC50.

In the case of `CCN(CC)CCn1c(=N)n(CC(O)c2ccc(Cl)c(Cl)c2)c2ccccc21` (stereo not drawn) [MMV000248], the “percent_inh @ 5 uM” value under setting [1] is listed as 97%. Under setting [2], the EC50 was 718 nM.
Consider `CCOc1ccc(Nc2c3ccccc3nc3ccccc23)cc1` [MMV000304], for which the “percent_inh @ 5 uM” value under setting [3] is reported as 97%. In addition, the EC50 reads like this: under setting [4], 1060 nM; under setting [5], 5720 nM.
On to `Cc1ccc2nc(C)cc(Nc3cccc(C(F)(F)F)c3)c2c1` [MMV000326], for which the “percent_inh @ 5 uM” value under setting [3] is recorded as 98%. The EC50 under setting [4] is 1170 nM and the EC50 under setting [5] was 879 nM.
With `CCn1c2c(c(=N)c3c1CCC3)CCCC2` [MMV000340], the EC50 under setting [6] is 3120 nM.
Turning to `CC(C)(C)c1ccc2c(c1)CN(Cc1ccc(Cl)cc1)CO2` [MMV000442], the “percent_inh @ 5 uM” value under setting [3] is 98%. Besides, the EC50 runs as follows: under setting [4], 362 nM; under setting [5], 255 nM.
On to `CCOc1ccc2c(c1)CN(Cc1ccc(Cl)cc1)CO2` [MMV000443], for which the “percent_inh @ 5 uM” value under setting [3] was 97%. The EC50 reads like this: under setting [4], 439 nM; under setting [5], 1490 nM.
Consider `CCCCCn1c(=N)n(CC(O)COc2cccc(C)c2)c2ccccc21` (stereo not drawn) [MMV000444], for which the “percent_inh @ 5 uM” value under setting [3] is on record as 96%. The EC50 under setting [5] is 2650 nM.
As for `CCCCCCn1c(=N)n(CC(O)COc2cccc(C)c2)c2ccccc21` (stereo not drawn) [MMV000445], the “percent_inh @ 5 uM” value under setting [3] was 98%. Further, the EC50 is 1140 nM under setting [4] and 1970 nM under setting [5].
On to `CN(C)CCCNc1c2ccccc2nc2ccccc12` [MMV000448], for which, under setting [7], the “percent_inh @ 5 uM” value is listed as 95%. Besides, the EC50 is, setting by setting: under setting [8], 235 nM; under setting [9], 32.7 nM; under setting [10], 1040 nM; under setting [5], 531 nM.
For `CCOc1cc2c(cc1OCC)C(c1cc(Cl)c(O)c(OCC)c1)NCC2` (stereo not drawn) [MMV000481], under setting [3], the “percent_inh @ 5 uM” value is listed as 96%. Further, the EC50 by setting is: under setting [4], 1330 nM; under setting [5], 3010 nM.
As to `CCOc1cc2c(cc1OCC)C(c1cc(C)c(O)c(C)c1)NCC2` (stereo not drawn) [MMV000483], the “percent_inh @ 5 uM” value under setting [3] is 97%. For the same compound, the EC50 by setting is: under setting [4], 683 nM; under setting [5], 1830 nM.
For the compound `CCN(CC)c1cc(C)c2cc(NC(=O)c3cccc(OC)c3)ccc2n1` [MMV000498], the “percent_inh @ 5 uM” value under setting [1] is on record as 97%. Besides, under setting [11], the EC50 is 4770 nM.
As for `CCCN(CCC)CCCNC(=O)c1cc2c(-c3ccc(OC)c(OC)c3)nn(C)c2s1` [MMV000561], the “percent_inh @ 5 uM” value under setting [1] is on record as 98%. Further, the EC50 reads like this: under setting [2], 1430 nM; under setting [11], 4040 nM.
Turning to `COc1ccc(C2Sc3ccccc3N=C3C2=C(O)c2ccccc23)cc1` (stereo not drawn) [MMV000563], the “percent_inh @ 5 uM” value under setting [7] was 96%. The EC50 was 845 nM under setting [8] and 238 nM under setting [9].
In the case of `CCc1ccc(Nc2cc(C)c3ccc(O)cc3n2)cc1` [MMV000570], under setting [7], the “percent_inh @ 5 uM” value was 98%. Besides, the EC50 was 194 nM under setting [8] and 732 nM under setting [5].
In the case of `COc1ccc(-c2cc(=O)oc3c4c(ccc23)OCN(Cc2ccc(F)cc2)C4)cc1` [MMV000604], the “percent_inh @ 5 uM” value under setting [3] is on record as 96%. The EC50 under setting [4] is 735 nM and the EC50 under setting [5] was 5210 nM.
On to `COc1ccc(C(O)(CCC(C)C)C(CN2CCOCC2)c2ccc(Cl)cc2)cc1` (stereo not drawn) [MMV000617], for which the EC50 under setting [6] was 4610 nM.
Turning to `CCCCC(O)(c1ccc(Cl)cc1)C(CN1CCOCC1)c1ccc(Cl)cc1` (stereo not drawn) [MMV000619], the “percent_inh @ 5 uM” value under setting [3] is listed as 98%. The EC50 is 1380 nM under setting [4] and 4010 nM under setting [5].
Turning to `CC(O)(c1ccc(Cl)cc1)C(CN1CCCCC1)c1ccccc1` (stereo not drawn) [MMV000620], under setting [7], the “percent_inh @ 5 uM” value was 94%. In addition, the EC50 under setting [5] was 916 nM.
For the compound `CCCCCCC(O)(c1ccc(F)cc1)C(CN1CCOCC1)c1ccccc1` (stereo not drawn) [MMV000621], under setting [3], the “percent_inh @ 5 uM” value is 93%. In addition, the EC50 under setting [5] was 3180 nM.
As for `CC1CCCCN1CCCNC(=O)c1ccc2c(c1)sc1nc(-c3ccc(F)cc3)cn12` (stereo not drawn) [MMV000634], the “percent_inh @ 5 uM” value under setting [7] is 98%. Besides, the EC50 was 648 nM under setting [8] and 634 nM under setting [5].
For `COc1ccc(NC(=O)C2c3ccccc3C(=O)N(CC(C)C)C2c2cccs2)cc1Cl` (stereo not drawn) [MMV000642], under setting [7], the “percent_inh @ 5 uM” value is given as 100%. Moreover, the EC50 under setting [8] is 20.2 nM, the EC50 under setting [9] was 91.4 nM and the EC50 under setting [5] was 119 nM.
`COc1ccccc1CNC(=O)C1c2ccccc2C(=O)N(CC(C)C)C1c1cccs1` (stereo not drawn) [MMV000648]: under setting [1], the “percent_inh @ 5 uM” value is on record as 97%. Also, the EC50 under setting [11] is 3160 nM.
`CCOc1ccccc1CNC(=O)C1c2ccccc2C(=O)N(CC(C)C)C1c1cccs1` (stereo not drawn) [MMV000653]: the “percent_inh @ 5 uM” value under setting [7] was 97%. The EC50 by setting is: under setting [8], 1320 nM; under setting [5], 1430 nM.
Regarding `COc1ccc(NC(=O)C2c3ccccc3C(=O)N(CC(C)C)C2c2cccs2)cc1` (stereo not drawn) [MMV000662], under setting [7], the “percent_inh @ 5 uM” value is 100%. Moreover, the EC50 by setting is: under setting [8], 36.7 nM; under setting [5], 102 nM.
`Cc1ccc(C2CC(C(F)(F)F)n3nc(C(=O)N4CCN(C(c5ccccc5)c5ccccc5)CC4)cc3N2)cc1` (stereo not drawn) [MMV000699]: the “percent_inh @ 5 uM” value under setting [3] is reported as 98%. Also, the EC50 under setting [4] was 454 nM and the EC50 under setting [5] was 668 nM.
As to `Cc1ccnc(NC(c2cccc(OCc3ccccc3)c2)c2ccc3cccnc3c2O)c1` (stereo not drawn) [MMV000720], under setting [3], the “percent_inh @ 5 uM” value is recorded as 97%. For the same compound, the EC50 is, setting by setting: under setting [4], 1020 nM; under setting [10], 864 nM; under setting [5], 1810 nM.
As for `Oc1c(CN2CCN(c3ccccc3F)CC2)cc(Br)c2cccnc12` [MMV000760], the “percent_inh @ 5 uM” value under setting [3] is listed as 91%. Besides, under setting [5], the EC50 is 3760 nM.
For `CCCOCc1cc(CN2CCN(c3cccc(Cl)c3)CC2)c(O)c2ncccc12` [MMV000787], under setting [6], the EC50 was 1100 nM.
On to `CC(C)OCc1cc(CN2CCN(c3cccc(Cl)c3)CC2)c(O)c2ncccc12` [MMV000788], for which, under setting [1], the “percent_inh @ 5 uM” value is 98%. For the same compound, the EC50 under setting [2] is 697 nM and the EC50 under setting [11] is 941 nM.
Take `OC(CNCc1ccccc1)Cn1c2ccccc2c2ccccc21` (stereo not drawn) [MMV000839]: under setting [3], the “percent_inh @ 5 uM” value was 95%. In addition, the EC50 by setting is: under setting [4], 1080 nM; under setting [5], 3760 nM.
In the case of `OC(CNC1CCCC1)Cn1c2ccccc2c2ccccc21` (stereo not drawn) [MMV000848], under setting [1], the “percent_inh @ 5 uM” value is 97%. The EC50 runs as follows: under setting [2], 660 nM; under setting [11], 1080 nM.
As to `Cc1ccc(NC(=O)Nc2cccc(Cl)c2)cc1F` [MMV000911], the “percent_inh @ 5 uM” value under setting [1] was 52%. Moreover, the EC50 under setting [11] is 15000 nM.
On to `COc1ccc2c(c1OC)C(=O)N1c3ccccc3N=C(c3ccc(C)cc3)CC21` (stereo not drawn) [MMV000917], for which the “percent_inh @ 5 uM” value under setting [3] is recorded as 93%. For the same compound, the EC50 under setting [4] was 1240 nM and the EC50 under setting [5] is 2530 nM.
With `COc1ccc(Nc2nc(NCc3ccccc3)c3ccccc3n2)cc1` [MMV000963], the EC50 was 589 nM under setting [4], 212 nM under setting [9] and 1310 nM under setting [5].
Regarding `O=C1CC(O)(C(F)(F)C(F)(F)F)Oc2ccccc21` (stereo not drawn) [MMV000972], the “percent_inh @ 5 uM” value under setting [3] is given as 95%. For the same compound, the EC50 under setting [5] was 2570 nM.
Regarding `Cc1ccc(Nc2nc(NCCO)c3ccccc3n2)cc1C` [MMV001038], the EC50 by setting is: under setting [8], 428 nM; under setting [9], 175 nM; under setting [5], 843 nM.
`CC(C)c1ccc(CNCC(O)c2ccccc2)cc1` (stereo not drawn) [MMV001049]: under setting [3], the “percent_inh @ 5 uM” value is on record as 96%. Further, the EC50 was 1260 nM under setting [4] and 1350 nM under setting [5].
Take `CCOc1cccc2sc(N(Cc3cccnc3)C(=O)C3CCCCC3)nc12` [MMV001230]: under setting [1], the “percent_inh @ 5 uM” value is recorded as 94%. The EC50 under setting [11] is 3040 nM.
Regarding `COc1ccc2sc(N(Cc3cccnc3)C(=O)c3ccc(C#N)cc3)nc2c1` [MMV001239], the EC50 under setting [6] is 15000 nM.
With `COc1ccc(C)c2sc(N(Cc3cccnc3)C(=O)c3ccc(C#N)cc3)nc12` [MMV001241], the “percent_inh @ 5 uM” value under setting [3] is on record as 91%. The EC50 under setting [5] was 15000 nM.
On to `CSc1ccccc1C(=O)Nc1nc(-c2ccccn2)cs1` [MMV001246], for which, under setting [7], the “percent_inh @ 5 uM” value is listed as 98%. Besides, the EC50 runs as follows: under setting [8], 206 nM; under setting [5], 6820 nM.
With `CCCCc1ccc(NS(=O)(=O)c2cc3c4c(c2)CCN4C(=O)CC3)cc1` [MMV001255], the “percent_inh @ 5 uM” value under setting [7] was 96%. The EC50 reads like this: under setting [8], 538 nM; under setting [5], 15000 nM.
Regarding `O=C(Nc1ccc(Br)cc1)Nc1cccc(Cl)c1` [MMV001318], the “percent_inh @ 5 uM” value under setting [3] is 94%. For the same compound, the EC50 under setting [5] was 15000 nM.
As for `CC1CC(C)CN(C(=O)c2ccc(Cl)cc2Cl)C1` (stereo not drawn) [MMV001344], the “percent_inh @ 5 uM” value under setting [1] is reported as 95%. Also, the EC50 is 756 nM under setting [2] and 1320 nM under setting [11].
Regarding `CCN(CC)CCNc1ccnc2cc(Cl)ccc12` [MMV006087], the EC50 under setting [8] was 58.1 nM and the EC50 under setting [9] is 7.16 nM.
As for `c1ccc(CNc2nc(Nc3ccccc3)nc3ccccc23)cc1` [MMV006169], the EC50 under setting [6] was 158 nM.
On to `CN1CCN(c2ccc(Nc3c4ccccc4nc4ccccc34)cc2)CC1` [MMV006172], for which the “percent_inh @ 5 uM” value under setting [7] was 97%. The EC50 under setting [8] was 142 nM, the EC50 under setting [9] is 56.7 nM and the EC50 under setting [10] was 645 nM.
For the compound `O=C(NCc1ccco1)C1CCN(S(=O)(=O)c2ccc(Cl)cc2)CC1` [MMV006188], under setting [1], the “percent_inh @ 5 uM” value is reported as 94%. Besides, the EC50 is 890 nM under setting [2] and 514 nM under setting [11].
Turning to `Cc1cc(NCCN2CCCCC2)c2ccc3ccccc3c2n1` [MMV006203], the “percent_inh @ 5 uM” value under setting [7] is given as 99%. The EC50 was 300 nM under setting [8] and 44.1 nM under setting [9].
